The source of these data is patent US8609698B2, “Substituted dipyridyl-dihydropyrazolones and use thereof” (Bayer Intellectual Property GmbH, priority 2006, dated 2013).

Structures can show the parent of a compound that is named as a salt.

This test has as its target HIF prolyl hydroxylase. The test is described as follows: Inhibition of the activity of HIF prolyl hydroxylase (VBC complex binding test). It is filed as biochemical. The source says: 1. In Vitro Tests for Determination of the Activity and Selectivity of HIF Prolyl 4-Hydroxylase Inhibitors 1.a) Inhibition of the Activity of HIF Prolyl Hydroxylase:
Hydroxylated HIF bonds specifically to the von Hippel-Lindau protein-elongin B-elongin C complex (VBC complex). This interaction occurs only if HIF is hydroxylated on a conserved prolyl radical. It is the basis for the biochemical determination of HIF prolyl hydroxylase activity.
A clear 96-well microtiter plate coated with NeutrAvidin HBC (Pierce) is incubated with blocker casein for 30 minutes. The plate is then washed three times with 200 μl each time of wash buffer (50 mM Tris, pH 7.5, 100 mM NaCl, 10% (v/v) blocker casein, 0.05% (v/v) Tween 20) per well. […] This peptide serves as a substrate for the prolyl hydroxylation and is bonded to the microtiter plate. After incubation for 60 minutes, the plate is washed three times with wash buffer, incubated with 1 mM biotin in blocker casein for 30 minutes and then washed again three times with wash buffer.
To carry out the prolyl hydroxylase reaction, the peptide substrate bonded to the plate is incubated with a cell lysate containing prolyl hydroxylase for 1 to 60 minutes. The reaction takes place in 100 μl reaction buffer (20 mM Tris, pH 7.5, 5 mM KCl, 1.5 mM MgCl2, 1 μM-1 mM 2-oxoglutarate, 10 μM FeSO4, 2 mM ascorbate) at room temperature. The reaction mixture moreover contains various concentrations of the prolyl hydroxylase inhibitor to be tested. The test substance is preferably, but not exclusively, employed at concentrations of between 1 nM and 100 μM. The reaction is stopped by washing the plate three times with wash buffer.
For quantitative determination of the prolyl hydroxylation, a fusion protein which contains both thioredoxin from E. coli and the VBC complex in 80 μl bonding buffer (50 mM Tris, pH 7.5, 120 mM NaCl) is added. After 15 minutes, 10 μl of a solution of polyclonal anti-thioredoxin antibodies from rabbit in bonding buffer are added. After a further 30 minutes, 10 μl of a solution of anti-rabbit immunoglobulin coupled to horseradish peroxidase in bonding buffer are added. After incubation at room temperature for 30 minutes, the plate is washed three times with wash buffer in order to remove non-bonded VBC complex and antibodies. To determine the amount of bonded VBC complex, the plate is incubated with TMB for 15 minutes. The color reaction is ended by addition of 100 μl 1 M sulfuric acid. The amount of bonded VBC complex is determined by measurement of the optical density at 450 nm. It is proportional to the amount of hydroxylated proline in the peptide substrate.
Alternatively, a VBC complex coupled to europium (Perkin Elmer) can be used for detection of the prolyl hydroxylation. In this case, the amount of bonded VBC complex is determined by the fluorescence with respect to time. The use of VBC complex labeled with [^35S]-methionine is moreover possible. For this, the radioactively labeled VBC complex can be prepared by in vitro transcription-translation in reticulocyte lysate.
Broadly, the IC50 is the point on the concentration scale where inhibition reaches its midpoint. Molecule `COCCNCc1ccc(-n2[nH]cc(-c3cccnc3)c2=O)nc1` [Example 5, 2-(5-{[(2-Methoxyethyl)amino]methyl}pyridin-2-yl)-4-pyridin-3-yl-1,2-dihydro-3H-pyrazol-3-one hydrochloride] displayed an IC50 of 6.3 µM. On to `Cc1ccnc(-n2[nH]cc(-c3cncc(C#N)c3)c2=O)c1` [Example 8, 5-[2-(4-Methylpyridin-2-yl)-3-oxo-2,3-dihydro-1H-pyrazol-4-yl]pyridine-3-carbonitrile hydrochloride], for which the IC50 is 5.2 µM.

As to `O=C(O)c1ccc(-n2[nH]cc(-c3cncc(Br)c3)c2=O)nc1` [Example 10, 6-[4-(5-Bromopyridin-3-yl)-5-oxo-2,5-dihydro-H-pyrazol-1-yl]pyridine-3-carboxylic acid hydrochloride], the IC50 turned out to be 0.26 µM. With `CC(C)(C)NC(=O)c1ccc(-n2[nH]cc(-c3cccnc3)c2=O)nc1` [Example 18, N-tert-Butyl-6-(5-oxo-4-pyridin-3-yl-2,5-dihydro-1H-pyrazol-1-yl)pyridine-3-carboxamide hydrochloride] the figure was 0.91 µM. Then `O=c1c(-c2cccnc2)c[nH]n1-c1ccc(Cn2cccc2)cn1` [Example 22, 4-Pyridin-3-yl-2-[5-(1H-pyrrol-1-ylmethyl)pyridin-2-yl]-1,2-dihydro-3H-pyrazol-3-one hydrochloride], with 3.24 µM; and `O=C(NCc1ccnc(-n2[nH]cc(-c3cccnc3)c2=O)c1)Nc1c(Cl)cccc1Cl` [Example 65], with 0.9 µM. `Cc1ccccc1NC(=O)OCc1ccc(-n2[nH]cc(-c3cccnc3)c2=O)nc1` [Example 80] came in with an IC50 of 1.6 µM.
